Measurements as given in DBAASP.
Converted amounts (≈) assume the structure as drawn.

Key:
Test in all cases: ≥ marks a high value that may be exact or a test limit, other limits are often not marked, values filed in µg/mL are converted to µM
Escherichia coli K-12 = tested on: Escherichia coli K-12
[1] = tested on: Staphylococcus aureus ATCC 25923
[2] = tested on: Staphylococcus aureus ATCC 43300
[3] = tested on: Staphylococcus aureus ATCC 700699
Staphylococcus aureus = tested on: Staphylococcus aureus
Bacillus megaterium = tested on: Bacillus megaterium
[4] = tested on: Escherichia coli ATCC 25922
Escherichia coli ML-35 = tested on: Escherichia coli ML-35
[5] = tested on: Pseudomonas aeruginosa ATCC 27853
[6] = tested on: Salmonella enterica subsp. enterica serovar Typhimurium ATCC 14028
[7] = tested on: Micrococcus luteus ATCC 9341
[8] = tested on: Staphylococcus aureus ATCC 6538
[9] = tested on: Escherichia coli ATCC 8739
Klebsiella pneumoniae = tested on: Klebsiella pneumoniae
Micrococcus luteus = tested on: Micrococcus luteus
[10] = tested on: Pseudomonas aeruginosa ATCC 15692
Saccharomyces cerevisiae = tested on: Saccharomyces cerevisiae
[11] = tested on: Bacillus subtilis ATCC 23857
[12] = tested on: Staphylococcus aureus ATCC 29213
[13] = tested on: Staphylococcus epidermidis ATCC 12228
[14] = tested on: Escherichia coli DH5alpha
Pseudomonas aeruginosa = tested on: Pseudomonas aeruginosa
Salmonella typhimurium = tested on: Salmonella typhimurium
Streptococcus mutans = tested on: Streptococcus mutans

Which results are given for CC[C@H](C)[C@H](N)C(=O)NCC(=O)N[C@@H](CCCCN)C(=O)N[C@@H](CCC(=O)O)C(=O)N[C@@H](Cc1ccccc1)C(=O)N[C@@H](CCCCN)C(=O)N[C@@H](CCCNC(=N)N)C(=O)N[C@H](C(=O)N[C@H](C(=O)N[C@@H](CCC(N)=O)C(=O)N[C@@H](CCCNC(=N)N)C(=O)N[C@H](C(=O)N[C@@H](CCCCN)C(=O)N[C@@H](CC(=O)O)C(=O)N[C@@H](Cc1ccccc1)C(=O)N[C@@H](CC(C)C)C(=O)N[C@@H](CCCNC(=N)N)C(=O)N[C@@H](CC(N)=O)C(=O)N[C@@H](CC(C)C)C(=O)N[C@H](C(=O)N1CCC[C@H]1C(=O)N[C@@H](CCCNC(=N)N)C(=O)N[C@H](C(=O)N[C@@H](CCC(=O)O)C(=O)N[C@H](C=O)CO)[C@@H](C)O)C(C)C)[C@@H](C)CC)C(C)C)[C@@H](C)CC [IGKEFKRIVQRIKDFLRNLVPRTES]?
MIC (Escherichia coli K-12): ≥ 80 µM; MIC [1]: 168 µM (≈ 509 µg/mL); MIC [2]: 168 µM (≈ 509 µg/mL); MIC [3]: ≥ 336 µM; MIC (Staphylococcus aureus): 168 µM (≈ 509 µg/mL)

How did the MIC (Bacillus megaterium) turn out when CC[C@H](C)[C@H](NC(=O)[C@H](CCCCN)NC(=O)[C@H](CCCCN)NC(=O)[C@H](CC(C)C)NC(=O)[C@H](CCCCN)NC(=O)[C@H](CCC(=O)O)NC(=O)[C@H](CCCCN)NC(=O)[C@@H]1CCCN1C(=O)[C@H](CCCCN)NC(=O)[C@H](CC(N)=O)NC(=O)[C@H](CCCN=C(N)N)NC(=O)[C@@H]1CCCN1C(=O)[C@H](CCCCN)NC(=O)[C@H](CCCN=C(N)N)NC(=O)[C@H](CC(C)C)NC(=O)[C@H](CCCN=C(N)N)NC(=O)[C@H](CCCCN)NC(=O)[C@H](CCCN=C(N)N)NC(=O)[C@H](CC(C)C)NC(=O)CN)C(=O)O [GLRKRLRKPRNKPKEKLKKI] was run?
The MIC was at least 64 µM.

And the MIC [4]?
Its MIC is over 64 µM.

What about the MIC (Escherichia coli ML-35) of the same compound?
Its MIC is at least 64 µM.

What about the MIC [5] of the same compound?
Its MIC is over 64 µM.

What about the MIC [6] of the same compound?
The MIC was over 64 µM.

And the MIC [1]?
The MIC was over 64 µM.

What does the source list for CC(C)[C@H](NC(=O)[C@H](CCCCN)NC(=O)[C@H](Cc1ccccc1)NC(=O)[C@@H](NC(=O)[C@@H](NC(=O)[C@@H](N)CCCCN)C(C)C)C(C)C)C(=O)N[C@@H](CCCCN)C(=O)N[C@@H](Cc1ccccc1)C(=O)N[C@@H](CCCCN)C(N)=O [KVVFKVKFK]?
MIC [7]: 5.57 µM (≈ 6.24 µg/mL); MIC [8]: 5.57 µM (≈ 6.24 µg/mL)

Which MIC [4] does the source give for CC[C@H](C)[C@H](NC(=O)[C@H](CCCCN)NC(=O)[C@H](CCCN=C(N)N)NC(=O)CNC(=O)[C@H](CC(C)C)NC(=O)[C@H](CCCN=C(N)N)NC(=O)[C@H](CCCN=C(N)N)NC(=O)[C@H](CC(C)C)NC(=O)CNC(=O)[C@H](CCCN=C(N)N)NC(C)=O)C(=O)N[C@@H](CCCCN)C(=O)N[C@@H](CCCCN)C(=O)NCC(=O)N[C@@H](CC(C)C)C(=O)N[C@@H](CCCCN)C(=O)N[C@@H](CCCCN)C(=O)N[C@@H](Cc1ccc(O)cc1)C(=O)NCC(N)=O [RGLRRLGRKIKKGLKKYG] here?
The MIC was 35.4 µM (≈ 76.7 µg/mL).

And the MIC [9]?
The MIC was 17.7 µM (≈ 38.3 µg/mL).

What about the MIC (Klebsiella pneumoniae) of the same compound?
Its MIC is 70.7 µM (≈ 153 µg/mL).

What about the MIC [5] of the same compound?
The MIC was 17.7 µM (≈ 38.3 µg/mL).

Which results are given for CC[C@H](C)[C@H](NC(=O)[C@H](C)NC(=O)[C@H](CC(N)=O)NC(=O)[C@@H](NC(=O)CNC(=O)CNC(=O)[C@H](CCCCN)NC(=O)[C@H](C)NC(=O)[C@H](Cc1ccccc1)NC(=O)[C@H](CCCCN)NC(=O)[C@H](CCCCN)NC(=O)[C@H](C)NC(=O)[C@H](Cc1ccccc1)NC(=O)[C@H](CC(N)=O)NC(=O)[C@H](C)NC(=O)[C@@H](NC(=O)[C@H](CCCCN)NC(=O)[C@H](CO)NC(=O)[C@H](CCSC)NC(=O)[C@H](Cc1ccccc1)NC(=O)CN)C(C)C)C(C)C)C(=O)N[C@@H](CCSC)C(=O)N[C@@H](CC(N)=O)C(=O)N[C@@H](CCC(N)=O)C(=O)N[C@@H](CCCCN)C(=O)O [GFMSKVANFAKKFAKGGVNAIMNQK]?
MIC [4]: 1 µM (≈ 2.69 µg/mL); MIC (Micrococcus luteus): 0.5 µM (≈ 1.34 µg/mL); MIC [10]: 4 µM (≈ 10.7 µg/mL); MIC (Saccharomyces cerevisiae): 8 µM (≈ 21.5 µg/mL); MIC [1]: 128 µM (≈ 344 µg/mL)

What does the source list for CC[C@H](C)[C@H](N)C(=O)N[C@@H](CC(C)C)C(=O)NCC(=O)N[C@H](C(=O)N[C@H](C(=O)N1CCC[C@H]1C(=O)NCC(=O)N[C@@H](CC(C)C)C(=O)N[C@@H](CC(C)C)C(=O)N[C@@H](CCCCN)C(=O)NCC(=O)N[C@@H](CC(C)C)C(N)=O)[C@@H](C)CC)[C@@H](C)O [ILGTIPGLLKGL]?
MIC [11]: ≥ 256 µM; MIC [4]: > 256 µM; MIC (Escherichia coli ML-35): ≥ 256 µM; MIC [12]: > 256 µM; MIC [13]: > 256 µM

Which MIC [9] does the source give for CC[C@H](C)[C@H](NC(=O)[C@H](CCCCN)NC(=O)[C@@H](N)CCCCN)C(=O)N[C@@H](CC(N)=O)C(=O)N[C@@H](CC(N)=O)C(=O)N[C@H](C(=O)N[C@H](C(=O)N[C@@H](CC(C)C)C(=O)N[C@@H](CO)C(=O)NCC(=O)N[C@@H](CC(C)C)C(=O)N[C@@H](CC(=O)O)C(=O)N[C@@H](CO)C(=O)N[C@H](C(=O)N[C@@H](C)C(=O)N[C@@H](CO)C(=O)N[C@@H](Cc1ccccc1)C(=O)N[C@@H](CO)C(=O)O)C(C)C)[C@@H](C)CC)[C@@H](C)O [KKINNTILSGLDSVASFS] here?
Its MIC is at least 135 µM.

What about the MIC [1] of the same compound?
The MIC was over 135 µM.

CC(C)C[C@H](NC(=O)CNC(=O)[C@H](C)NC(=O)[C@@H](NC(=O)[C@H](CC(N)=O)NC(=O)[C@H](CO)NC(=O)[C@H](CC(C)C)NC(=O)[C@H](CC(C)C)NC(=O)CN)C(C)C)C(=O)N[C@@H](CC(C)C)C(=O)N[C@@H](CCCCN)C(=O)N[C@@H](CCC(N)=O)C(=O)N[C@@H](Cc1ccccc1)C(=O)N[C@@H](C)C(=O)N[C@@H](CCCCN)C(=O)NCC(=O)NCC(=O)N[C@H](C(=O)N[C@@H](CC(N)=O)C(=O)N[C@@H](C)C(=O)N[C@H](C(=O)N[C@@H](CC(C)C)C(=O)N[C@@H](CC(N)=O)C(=O)N1CCC[C@H]1C(=O)N[C@@H](CCCCN)C(=O)O)C(C)C)C(C)C [GLLSNVAGLLKQFAKGGVNAVLNPK] was tested. Which MIC [4] did it give?
Its MIC is 8 µM (≈ 20.1 µg/mL).

And the MIC (Micrococcus luteus)?
Its MIC is 1 µM (≈ 2.51 µg/mL).

And the MIC [10]?
The MIC was at least 32 µM.

What about the MIC (Saccharomyces cerevisiae) of the same compound?
Its MIC is at least 32 µM.

What about the MIC [1] of the same compound?
The MIC was 128 µM (≈ 321 µg/mL).

Which MIC [14] does the source give for CC[C@H](C)[C@H](N)C(=O)N[C@@H](CC(C)C)C(=O)N1CCC[C@H]1C(=O)N[C@@H](Cc1c[nH]c2ccccc12)C(=O)N[C@@H](CCCCN)C(=O)N[C@@H](Cc1c[nH]c2ccccc12)C(=O)N1CCC[C@H]1C(=O)N[C@@H](Cc1c[nH]c2ccccc12)C(=O)N[C@@H](Cc1c[nH]c2ccccc12)C(=O)N[C@@H](C)C(=O)N[C@@H](Cc1c[nH]c2ccccc12)C(=O)N[C@@H](CCCN=C(N)N)C(=O)N[C@@H](CCCN=C(N)N)C(N)=O [ILPWKWPWWAWRR] here?
Its MIC is 15 µM (≈ 28.2 µg/mL).

And the MIC (Klebsiella pneumoniae)?
The MIC was 25 µM (≈ 47 µg/mL).

What about the MIC [7] of the same compound?
The MIC was 1.6 µM (≈ 3.01 µg/mL).

What about the MIC (Pseudomonas aeruginosa) of the same compound?
Its MIC is 50 µM (≈ 94 µg/mL).

What about the MIC (Salmonella typhimurium) of the same compound?
The MIC was at least 50 µM.

CC(C)C[C@H](NC(=O)[C@H](CCCN=C(N)N)NC(=O)[C@H](CCCCN)NC(=O)[C@H](C)N)C(=O)N[C@@H](CC(C)C)C(=O)N[C@@H](CCCCN)C(=O)N[C@H](C(=O)N[C@@H](CC(C)C)C(=O)N[C@@H](CCCCN)C(=O)N[C@@H](CCCN=C(N)N)C(=O)N[C@@H](Cc1ccccc1)C(N)=O)C(C)C [AKRLLKVLKRF] was tested. Which MIC (Streptococcus mutans) did it give?
Its MIC is 16.5 µM (≈ 22.6 µg/mL).

Which results are given for CC[C@H](C)[C@H](NC(=O)[C@H](CCCCN)NC(=O)[C@H](Cc1ccc(O)cc1)NC(=O)[C@H](Cc1ccccc1)NC(=O)[C@H](CCC(N)=O)NC(=O)[C@H](CO)NC(=O)[C@H](CCC(=O)O)NC(=O)[C@H](CCCN=C(N)N)NC(=O)[C@H](CC(N)=O)NC(=O)[C@@H]1CCCN1)C(=O)N[C@@H](CC(C)C)C(=O)N[C@@H](CCCN=C(N)N)C(=O)N[C@@H](CCCCN)C(=O)N[C@H](C(=O)N[C@@H](CC(C)C)C(=O)N[C@@H](CO)C(=O)N[C@@H](CCCCN)C(=O)N[C@H](C(=O)N[C@H](C(=O)O)C(C)C)[C@@H](C)CC)[C@@H](C)CC [PNRESQFYKILRKILSKIV]?
MIC [9]: 6.86 µM (≈ 16 µg/mL); MIC [1]: 27.4 µM (≈ 64 µg/mL)
